The values that follow come from patent publication US10570129B2 (Zoetis Services LLC, priority 2015, dated 2020).

The structures appear in SMILES notation.

The test system of one test is D. immitis microfilariae. Briefly: Dirofilaria immitis, microfilariae (DiMF) in vitro motility assay. It is filed as cell-based. To be noted: Dirofilaria immitis, 72 h, read-out: DiMF minimally effective dose (MEC).
Another test deals with Haemonchus contortus L3. In words: microbe, parasite or virus in culture. To be noted: Haemonchus contortus, 96 h, read-out: HcL3 Minimal Effective Concentration (MEC). It is filed as cell-based.

As for `N#Cc1ccc(/C=C/CN2CCc3c(c4ccc(OC(F)(F)F)cc4n3C(=O)NCc3ccnc(Cl)c3)C2)cc1` [Example 351, (E)-N-((2-chloropyridin-4-yl)methyl)-2-(3-(4-cyanophenyl)allyl)-7-(trifluoromethoxy)-1,2,3,4-tetrahydro-5H-pyrido[4,3-b]indole-5-carboxamide], the figures for the minimal effective concentration in the test with D. immitis microfilariae and with Haemonchus contortus L3 were 32.3 µM and 0.7 µM, respectively.
For `O=C(NCc1ccnc(F)c1)n1c2c(c3cc(Cl)ccc31)CN(C/C=C/c1ccc(F)cc1Cl)CC2` [Example 256, (E)-8-chloro-2-(3-(2-chloro-4-fluorophenyl)allyl)-N-((2-fluoropyridin-4-yl)methyl)-1,2,3,4-tetrahydro-5H-pyrido[4,3-b]indole-5-carboxamide], in that order: 10 µM and 0.2 µM.
For `O=C(NCc1ccnc(Cl)c1)n1c2c(c3cc(Cl)c(Cl)cc31)CN(C/C=C/c1ccc(Cl)c(F)c1)CC2` [Example 274, (E)-7,8-dichloro-2-(3-(4-chloro-3-fluorophenyl)allyl)-N-((2-chloropyridin-4-yl)methyl)-1,2,3,4-tetrahydro-5H-pyrido[4,3-b]indole-5-carboxamide] the same measures were 33 µM and 1.8 µM.
For `O=C(NCc1ccnc(Cl)c1)n1c2c(c3c(Cl)cccc31)CN(C/C=C/c1ccc(C(F)(F)F)cn1)CC2` [Example 207, (E)-9-chloro-N-((2-chloropyridin-4-yl)methyl)-2-(3-(5-(trifluoromethyl)-pyridin-2-yl)allyl)-1,2,3,4-tetrahydro-5H-pyrido[4,3-b]indole-5-carboxamide], the minimal effective concentration in the test on D. immitis microfilariae came out at 10 µM; with Haemonchus contortus L3 it was 0.3 µM.
For `N#Cc1ccc2c3c(n(C(=O)NCc4ccnc(Cl)c4)c2c1)CCN(C/C=C/c1ccc(Br)cc1F)C3` [Example 5, (E)-2-(3-(4-bromo-2-fluorophenyl)allyl)-N-((2-chloropyridin-4-yl)methyl)-7-cyano-1,2,3,4-tetrahydro-5H-pyrido[4,3-b]indole-5-carboxamide] the same measures were 5.7 µM and 1 µM.
For `N#Cc1ccc2c3c(n(C(=O)NCc4ccnc(Cl)c4)c2c1)CCN(C/C=C/c1ccc(Cl)cc1)C3` [Example 34, (E)-2-(3-(4-chlorophenyl)allyl)-N-((2-chloropyridin-4-yl)methyl)-7-cyano-1,2,3,4-tetrahydro-5H-pyrido[4,3-b]indole-5-carboxamide] the same measures were 3.3 µM and 3.3 µM.
With `O=C(NCc1ccnc(Cl)c1)n1c2c(c3cc(Cl)ccc31)CN(C/C=C/c1ccc(Cl)c(Cl)c1)CC2` [Example 243, (E)-8-chloro-N-((2-chloropyridin-4-yl)methyl)-2-(3-(3,4-dichlorophenyl)allyl)-1,2,3,4-tetrahydro-5H-pyrido[4,3-b]indole-5-carboxamide], the figures for the minimal effective concentration with D. immitis microfilariae and with Haemonchus contortus L3 were 10 µM and 1.3 µM, respectively.
For `O=C(NCc1cnc(Cl)s1)n1c2c(c3cc(OC(F)(F)F)ccc31)CN(C/C=C/c1ccc(Cl)cc1)CC2` [Example 409, (E)-2-(3-(4-chlorophenyl)allyl)-N-((2-chlorothiazol-5-yl)methyl)-8-(trifluoromethoxy)-1,2,3,4-tetrahydro-5H-pyrido[4,3-b]indole-5-carboxamide], in that order: 10 µM and 1 µM.
Turning to `O=C(NCc1ccnc(Cl)c1)n1c2c(c3ccc(Br)cc31)CN(C/C=C/c1ccc(Cl)c(F)c1)CC2` [Example 437, (E)-7-bromo-2-(3-(4-chloro-3-fluorophenyl)allyl)-N-((2-chloropyridin-4-yl)methyl)-1,2,3,4-tetrahydro-5H-pyrido[4,3-b]indole-5-carboxamide], the minimal effective concentration in the test on D. immitis microfilariae turned out to be 10 µM; in the test on Haemonchus contortus L3, 1 µM.
As for `N#Cc1ccc2c(c1)c1c(n2C(=O)NCc2ccnc(F)c2)CCN(C/C=C/c2ccc(Cl)cc2Cl)C1` [Example 101, (E)-8-cyano-2-(3-(2,4-dichlorophenyl)allyl)-N-((2-fluoropyridin-4-yl)methyl)-1,2,3,4-tetrahydro-5H-pyrido[4,3-b]indole-5-carboxamide], the minimal effective concentration came to 24 µM in the test with D. immitis microfilariae and 0.2 µM with Haemonchus contortus L3.
Regarding `N#Cc1ccc(/C=C/CN2CCc3c(c4cc(C(F)(F)F)ccc4n3C(=O)NCc3ccnc(F)c3)C2)cc1F` [Example 416, (E)-2-(3-(4-cyano-3-fluorophenyl)allyl)-N-((2-fluoropyridin-4-yl)methyl)-8-(trifluoromethyl)-1,2,3,4-tetrahydro-5H-pyrido[4,3-b]indole-5-carboxamide], the minimal effective concentration stood at 57.4 µM with D. immitis microfilariae and 1.8 µM with Haemonchus contortus L3.
For `O=C(NCc1ccnc(Cl)c1)n1c2c(c3ccc(Br)cc31)CN(C/C=C/c1ccc(F)c(F)c1)CC2` [Example 440, (E)-7-bromo-N-((2-chloropyridin-4-yl)methyl)-2-(3-(3,4-difluorophenyl)allyl)-1,2,3,4-tetrahydro-5H-pyrido[4,3-b]indole-5-carboxamide], in that order: 10 µM and 1.8 µM.
For `O=C(NCc1ccnc(Cl)c1)n1c2c(c3cc(-n4ccccc4=O)ccc31)CN(C/C=C/c1ccc(Cl)cc1)CC2` [Example 500, (E)-2-(3-(4-chlorophenyl)allyl)-N-((2-chloropyridin-4-yl)methyl)-8-(2-oxopyridin-1 (2H)-yl)-1,2,3,4-tetrahydro-5H-pyrido[4,3-b]indole-5-carboxamide], in that order: 5.7 µM and greater than 100 µM.
Turning to `O=C(NCc1ccnc(Cl)c1)n1c2c(c3cc(Cl)ccc31)CN(C/C=C/c1ccncc1)CC2` [Example 248, (E)-8-chloro-N-((2-chloropyridin-4-yl)methyl)-2-(3-(pyridin-4-yl)allyl)-1,2,3,4-tetrahydro-5H-pyrido[4,3-b]indole-5-carboxamide], the minimal effective concentration with D. immitis microfilariae came out at 0.5 µM; in the test on Haemonchus contortus L3, 0.4 µM.
Regarding `N#Cc1ccc2c3c(n(C(=O)NCc4ccnc(Cl)c4)c2c1)CCN(C/C=C/c1c(F)c(F)c(F)c(F)c1F)C3` [Example 16, (E)-N-((2-chloropyridin-4-yl)methyl)-7-cyano-2-(3-(perfluorophenyl)allyl)-1,2,3,4-tetrahydro-5H-pyrido[4,3-b]indole-5-carboxamide], the minimal effective concentration in the test on D. immitis microfilariae and in the test with Haemonchus contortus L3 was greater than 100 µM each time.
Regarding `O=C(NCc1ccnc(Cl)c1)n1c2c(c3ccc(OC(F)(F)F)cc31)CN(C/C=C/c1cc(F)c(F)c(F)c1)CC2` [Example 350, (E)-N-((2-chloropyridin-4-yl)methyl)-7-(trifluoromethoxy)-2-(3-(3,4,5-trifluorophenyl)allyl)-1,2,3,4-tetrahydro-5H-pyrido[4,3-b]indole-5-carboxamide], the minimal effective concentration with D. immitis microfilariae amounted to 1.3 µM; with Haemonchus contortus L3, 0.2 µM.
For the compound `O=C(NCc1ccnc(F)c1)n1c2c(c3ccc(Cl)cc31)CN(C/C=C/c1ccc(Cl)c(F)c1)CC2` [Example 224, (E)-7-chloro-2-(3-(4-chloro-3-fluorophenyl)allyl)-N-((2-fluoropyridin-4-yl)methyl)-1,2,3,4-tetrahydro-5H-pyrido[4,3-b]indole-5-carboxamide], the figures for the minimal effective concentration in the test with D. immitis microfilariae and with Haemonchus contortus L3 were 3.3 µM and 1.8 µM, respectively.
Take `O=C(NCc1ccnc(Cl)c1)n1c2c(c3ccc(Cl)cc31)CN(C/C=C/c1ccc(Cl)c(Cl)c1)CC2` [Example 215, (E)-7-chloro-N-((2-chloropyridin-4-yl)methyl)-2-(3-(3,4-dichlorophenyl)allyl)-1,2,3,4-tetrahydro-5H-pyrido[4,3-b]indole-5-carboxamide]: the minimal effective concentration in the test on D. immitis microfilariae came to 10 µM; with Haemonchus contortus L3, 0.5 µM.
With `O=C(NCc1ccnc(F)c1)n1c2c(c3c(OC(F)(F)F)cccc31)CN(C/C=C/c1ccc(Cl)cc1)CC2` [Example 379a, (E)-2-(3-(4-chlorophenyl)allyl)-N-((2-fluoropyridin-4-yl)methyl)-9-(trifluoromethoxy)-1,2,3,4-tetrahydro-5H-pyrido[4,3-b]indole-5-carboxamide], the results for the minimal effective concentration in the test on D. immitis microfilariae and in the test on Haemonchus contortus L3 were 3.3 µM and greater than 100 µM, respectively.
For `O=C(NCc1ccnc(Cl)c1)n1c2c(c3ccc(OC(F)(F)F)cc31)CN(C/C=C/c1ccc(Cl)cc1)CC2` [Example 353, (E)-2-(3-(4-chlorophenyl)allyl)-N-((2-chloropyridin-4-yl)methyl)-7-(trifluoromethoxy)-1,2,3,4-tetrahydro-5H-pyrido[4,3-b]indole-5-carboxamide], in that order: 18.2 µM and 1 µM.
For `O=C(NCc1ccnc(Cl)c1)n1c2c(c3cc(F)c(Cl)cc31)CN(C/C=C/c1ccc(F)c(F)c1)CC2` [Example 300, (E)-7-chloro-N-((2-chloropyridin-4-yl)methyl)-2-(3-(3,4-difluorophenyl)-allyl)-8-fluoro-1,2,3,4-tetrahydro-5H-pyrido[4,3-b]indole-5-carboxamide] the same measures were 10 µM and 0.5 µM.
Turning to `O=C(NCc1ccnc(Cl)c1)n1c2c(c3ccc(OC(F)(F)F)cc31)CN(C/C=C/c1ccc(C(F)(F)F)cn1)CC2` [Example 342, (E)-N-((2-chloropyridin-4-yl)methyl)-7-(trifluoromethoxy)-2-(3-(5-(trifluoromethyl)pyridin-2-yl)allyl)-1,2,3,4-tetrahydro-5H-pyrido[4,3-b]indole-5-carboxamide], the figures for the minimal effective concentration in the test with D. immitis microfilariae and in the test on Haemonchus contortus L3 were 10 µM and 1.8 µM, respectively.
As for `N#Cc1cccc2c1c1c(n2C(=O)NCc2ccnc(Cl)c2)CCN(C/C=C/c2ccc(Cl)cc2Cl)C1` [Example 4, (E)-N-((2-chloropyridin-4-yl)methyl)-9-cyano-2-(3-(2,4-dichlorophenyl)allyl)-1,2,3,4-tetrahydro-5H-pyrido[4,3-b]indole-5-carboxamide], the minimal effective concentration was 10 µM with D. immitis microfilariae and greater than 100 µM in the test with Haemonchus contortus L3.
